Data as given in ChEMBL document CHEMBL1201862, “PubChem BioAssay data set” (2004).
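Grown in 96-well plates, cells were treated for 48 hours with each compound at five concentrations. Insufficient inhibition: endpoint recorded as highest concentration tested. GI50 marks 50% less growth.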 Active and inactive are the calls of the source. No stated cut-off is given here; in the data, active = GI50 up to about 1.1 µM and inactive = higher.

Key:
Experiment in all cases: NCI-60 cell line screen, 48 h
CAKI-1 = tested on: CAKI-1
HOP-62 = tested on: HOP-62
RPMI-8226 = tested on: RPMI-8226
A549 = tested on: A549
IGROV-1 = tested on: IGROV-1
PC-3 = tested on: PC-3
SF-268 = tested on: SF-268
SNB-19 = tested on: SNB-19
M14 = tested on: M14
RXF 393 = tested on: RXF 393
MDA-N = tested on: MDA-N
MDA-MB-231 = tested on: MDA-MB-231
MOLT-4 = tested on: MOLT-4
NCI/ADR-RES = tested on: NCI/ADR-RES
HCC 2998 = tested on: HCC 2998
BT-549 = tested on: BT-549
OVCAR-4 = tested on: OVCAR-4
OVCAR-5 = tested on: OVCAR-5
SK-MEL-28 = tested on: SK-MEL-28
MCF7 = tested on: MCF7
HT-29 = tested on: HT-29
HCT-15 = tested on: HCT-15
Hs-578T = tested on: Hs-578T
T47D = tested on: T47D
U-251 = tested on: U-251
MDA-MB-435 = tested on: MDA-MB-435
K562 = tested on: K562
Malme-3M = tested on: Malme-3M
NCI-H226 = tested on: NCI-H226
SF-539 = tested on: SF-539
A498 = tested on: A498
KM12 = tested on: KM12
EKVX = tested on: EKVX
CCRF-CEM = tested on: CCRF-CEM
SR = tested on: SR
COLO 205 = tested on: COLO 205
UACC-257 = tested on: UACC-257
SK-OV-3 = tested on: SK-OV-3
HL-60 = tested on: HL-60
SF-295 = tested on: SF-295
LOX IMVI = tested on: LOX IMVI
SK-MEL-5 = tested on: SK-MEL-5
SN12C = tested on: SN12C
UACC-62 = tested on: UACC-62
OVCAR-3 = tested on: OVCAR-3
DU-145 = tested on: DU-145
NCI-H23 = tested on: NCI-H23
ACHN = tested on: ACHN
HCT-116 = tested on: HCT-116
SNB-75 = tested on: SNB-75
786-0 = tested on: 786-0
SK-MEL-2 = tested on: SK-MEL-2
SW-620 = tested on: SW-620
UO-31 = tested on: UO-31
NCI-H522 = tested on: NCI-H522
NCI-H460 = tested on: NCI-H460
OVCAR-8 = tested on: OVCAR-8
TK-10 = tested on: TK-10
HOP-92 = tested on: HOP-92

Measured: GI50

CCC/N=C(/NC(=O)c1ccc(Cl)cc1)SC
inactive: CAKI-1 > 100 µM | HOP-62 > 100 µM | RPMI-8226 26.5 µM | A549 > 100 µM | IGROV-1 > 100 µM | PC-3 80.5 µM | SF-268 88.9 µM | SNB-19 17.6 µM | M14 > 100 µM | RXF 393 > 100 µM | MDA-N > 100 µM | MDA-MB-231 > 100 µM | MOLT-4 58.7 µM | NCI/ADR-RES > 100 µM | HCC 2998 > 100 µM | BT-549 25.5 µM | OVCAR-4 50.9 µM | OVCAR-5 > 100 µM | SK-MEL-28 > 100 µM | MCF7 75.9 µM | HT-29 97.3 µM | Hs-578T 12.1 µM | T47D 65.9 µM | U-251 > 100 µM | MDA-MB-435 > 100 µM | K562 44.1 µM | Malme-3M > 100 µM | NCI-H226 43.1 µM | SF-539 > 100 µM | A498 27.4 µM | KM12 > 100 µM | EKVX > 100 µM | CCRF-CEM > 100 µM | SR 36.8 µM | COLO 205 > 100 µM | UACC-257 74.5 µM | SK-OV-3 > 100 µM | HL-60 58.7 µM | SF-295 > 100 µM | LOX IMVI > 100 µM | SK-MEL-5 48.6 µM | SN12C > 100 µM | UACC-62 > 100 µM | DU-145 > 100 µM | NCI-H23 46.3 µM | ACHN 39.8 µM | HCT-116 > 100 µM | SNB-75 11.4 µM | 786-0 > 100 µM | SK-MEL-2 > 100 µM | SW-620 > 100 µM | UO-31 15 µM | NCI-H522 52 µM | NCI-H460 90.6 µM | OVCAR-8 > 100 µM
47.9 µM: HCT-15
active: OVCAR-3 0.0473 µM

O=C1Nc2ccccc2S/C1=C\c1ccc(C(F)(F)F)cc1
inactive: CAKI-1 4.59 µM | HOP-62 > 100 µM | RPMI-8226 > 100 µM | A549 > 100 µM | IGROV-1 > 100 µM | PC-3 > 100 µM | SF-268 > 100 µM | SNB-19 > 100 µM | M14 > 100 µM | RXF 393 > 100 µM | MDA-N > 100 µM | MDA-MB-231 > 100 µM | MOLT-4 > 100 µM | NCI/ADR-RES > 100 µM | BT-549 > 100 µM | OVCAR-4 > 100 µM | TK-10 > 100 µM | OVCAR-5 > 100 µM | SK-MEL-28 > 100 µM | MCF7 > 100 µM | HT-29 > 100 µM | Hs-578T > 100 µM | HOP-92 > 100 µM | T47D > 100 µM | U-251 > 100 µM | MDA-MB-435 > 100 µM | K562 > 100 µM | Malme-3M > 100 µM | NCI-H226 > 100 µM | SF-539 > 100 µM | A498 > 100 µM | KM12 > 100 µM | EKVX 55.1 µM | SR > 100 µM | COLO 205 > 100 µM | UACC-257 > 100 µM | SK-OV-3 > 100 µM | HL-60 > 100 µM | SF-295 > 100 µM | LOX IMVI > 100 µM | SK-MEL-5 > 100 µM | SN12C > 100 µM | UACC-62 > 100 µM | OVCAR-3 > 100 µM | DU-145 > 100 µM | ACHN > 100 µM | HCT-116 > 100 µM | SNB-75 37.1 µM | 786-0 > 100 µM | SK-MEL-2 > 100 µM | SW-620 > 100 µM | UO-31 94 µM | NCI-H522 > 100 µM | NCI-H460 > 100 µM | OVCAR-8 > 100 µM
> 100 µM: HCT-15
